# Values joined by “and” are separate entries in the source; they are usually repeats but may differ in a detail not shown here. Equal values may be shown once.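 How tested: cells in 96-well plates exposed to compound for 48 hours at five concentrations. GI50 marks 50% less growth. TGI denotes the concentration required for complete inhibition of growth.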
# Key:
# Test in all cases: growth of human tumour cells (NCI), 48 h
# [1] = tested on: OVCAR-8 ovarian
# [2] = tested on: K-562 leukemia
# [3] = tested on: SF-295 CNS
# [4] = tested on: RPMI-8226 leukemia
# [5] = tested on: KM12 colon
# [6] = tested on: SNB-75 CNS
# [7] = tested on: SW-620 colon
# [8] = tested on: EKVX NSCLC
# [9] = tested on: NCI-H460 lung
# [10] = tested on: SK-MEL-2 melanoma
SMILES,GI50 [1],TGI [1],GI50 [2],TGI [2],GI50 [3],TGI [3],GI50 [4],TGI [4],GI50 [5],TGI [5],GI50 [6],TGI [6],GI50 [7],TGI [7] [µM],GI50 [8],TGI [8],GI50 [9],TGI [9],GI50 [10],TGI [10]
NC(=O)CC1(O)C=C(Br)C(=O)C(Br)=C1,2.88 µM,9.42 µM,2.22 µM,8.73 µM,12.6 µM,26.5 µM,2.25 µM,6.82 µM,13.8 µM,27.2 µM,12.8 µM,26.2 µM,1.77 µM,3.47,5.84 µM,19.7 µM,18.5 µM,37 µM,5.21 µM,18.4 µM
COc1cc(-c2ccc(NC(=O)SCCC(=O)O)cc2OC)ccc1NC(=O)SCCC(=O)O,–,> 100 µM,–,> 100 µM,–,> 100 µM,–,> 100 µM,–,> 100 µM,–,> 100 µM,–,> 100,–,> 100 µM,–,> 100 µM,–,> 100 µM
O=C(COc1ccc(OCC(=O)N2C(=O)CN(c3ccccc3)C2=S)cc1)N1C(=O)CN(c2ccccc2)C1=S,> 25 µM,> 100 µM,> 25 µM,> 100 µM,> 25 µM,> 100 µM,> 25 µM,> 100 µM,> 25 µM,> 100 µM,33.7 µM,> 100 µM,> 25 µM,> 100,> 25 µM,> 100 µM,> 25 µM,> 100 µM,> 25 µM,> 100 µM
COc1cc(/C=C/c2ccc(Br)cc2)cc(OC)c1OC,–,98.3 µM,–,> 37.8 µM,–,40.2 µM,–,20.8 µM,–,38 µM,–,39.5 µM,–,> 100,–,> 61.3 µM,–,49.4 µM,–,64.2 µM
NC(Cc1c[nH]c2ccc(F)cc12)C(=O)O (centres undefined),751 µM,> 2500 µM,887 µM,> 2500 µM,609 µM,1500 µM,1240 µM,> 2500 µM,760 µM,> 2500 µM,489 µM,1390 µM,1170 µM,> 2500,1000 µM,> 2500 µM,730 µM,> 2500 µM,2250 µM,> 2500 µM
COC1[C@H](NC(=O)OC(C)(C)C)C(=O)N1Cc1ccccc1 (some centres undefined),–,> 100 µM,–,> 100 µM,–,> 100 µM,–,> 100 µM,–,> 100 µM,–,> 100 µM,–,> 100,–,> 100 µM,–,> 100 µM,–,> 100 µM
COc1ccc(S(=O)(=O)N[C@H](C(=O)O)c2ccccc2)cc1,–,> 100 µM,–,> 100 µM,–,> 100 µM,–,> 100 µM,–,> 100 µM,–,> 100 µM,–,> 100,–,> 100 µM,–,> 100 µM,–,> 100 µM
CCCCCCCCCCCCCCCCc1c(C(=O)OC)nc(NN)[nH]c1=O,–,> 50 µM,–,> 50 µM,–,> 50 µM,–,> 50 µM,–,> 50 µM,–,> 50 µM,–,> 50,–,> 50 µM,–,> 50 µM,–,> 50 µM
Cc1nc(N)c(-c2ccccc2)s1,–,> 100 µM,–,> 100 µM,–,92.4 µM,–,> 72.1 µM,–,> 100 µM,–,> 100 µM,–,> 45.6,–,> 100 µM,–,> 100 µM,–,> 100 µM
COc1ccc(Cl)cc1Nc1nc(C(F)(F)F)ccc1C(=O)N/N=C/c1cccnc1,2.91 µM,> 100 µM,3.16 µM,> 100 µM,1.28 µM,9.52 µM,2.28 µM,> 100 µM,3.63 µM,> 100 µM,3.87 µM,49.7 µM,4.07 µM,> 100,2.98 µM,> 100 µM,4.03 µM,> 100 µM,3.5 µM,> 100 µM
O=C1C=CC(=Nc2cccc3c(N=C4C=CC(=O)O4)cccc23)O1,–,41.1 µM,–,55.6 µM,–,> 100 µM,–,58.2 µM,–,> 100 µM,–,> 100 µM,–,34.3,–,35.2 µM,–,> 100 µM,–,> 100 µM
Nc1nnnc2nc[nH]c12,1.26 µM,> 100 µM,3.72 µM,> 100 µM,0.78 µM,> 29.8 µM,0.245 µM,> 85.8 µM,4.11 µM,> 100 µM,–,> 100 µM,0.78 µM,> 100,0.7 µM,> 100 µM,2.46 µM,> 100 µM,1.06 µM,42.4 µM
C/C(=N/O)c1ccc2c(c1)/C(=N/O)c1ccccc1-2,21.4 µM,46.4 µM,15.8 µM,32.4 µM,22.6 µM,50.4 µM,22.5 µM,48.8 µM,18.1 µM,35.4 µM,17.7 µM,44.2 µM,19.3 µM,44.2,21.2 µM,66.1 µM,21.1 µM,46.4 µM,23.1 µM,48 µM
Cc1ccc(NC(=O)Nc2c(Cl)cccc2Cl)cn1,19.4 µM,> 100 µM,4.03 µM,> 100 µM,5.49 µM,> 100 µM,9.16 µM,> 100 µM,4.37 µM,> 100 µM,5.88 µM,> 100 µM,4.24 µM,> 100,3.04 µM,> 100 µM,4.91 µM,36.1 µM,5.87 µM,27.5 µM
COC1=C(OC)C(=O)C(Sc2ccc3ccccc3c2)=CC1=O,–,82.4 µM,–,10.3 µM,–,23.8 µM,–,5.78 µM,–,21.2 µM,–,29.8 µM,–,> 61,–,30.5 µM,–,43.4 µM,–,31.4 µM
COc1ccc2c(c1)[n+](=O)c(C(=O)C/C(=N/NC(=O)C[N+](C)(C)C)C(=O)Nc1cccc(C)c1C)c(C)n2O,–,> 100 µM,–,> 100 µM,–,> 100 µM,–,> 100 µM,–,> 100 µM,–,> 100 µM,–,> 100,–,> 100 µM,–,> 100 µM,–,> 100 µM

SMILES,GI50 [1],TGI [1],GI50 [2],TGI [2],GI50 [3],TGI [3],GI50 [4],TGI [4],GI50 [5],TGI [5],GI50 [6],TGI [6],GI50 [7],TGI [7] [µM],GI50 [8],TGI [8],GI50 [9],TGI [9],GI50 [10],TGI [10]
N#C/C(=C\c1cc(O)ccc1O)C(N)=O,–,> 100 µM,–,> 100 µM,–,> 100 µM,–,65.6 µM,–,> 100 µM,–,90.8 µM,–,> 100,–,> 100 µM,–,> 100 µM,–,> 100 µM
O=C(CO[N+](=O)[O-])OC/C=C/c1ccccc1,–,> 100 µM,–,> 100 µM,–,> 100 µM,–,> 100 µM,–,> 100 µM,–,> 100 µM,–,> 100,–,> 100 µM,–,> 100 µM,–,> 100 µM
Cc1ccc(-c2nc(N3CCNCC3)c3oc(-c4ccccc4)nc3n2)cc1,1.95 µM,4.15 µM,1.61 µM,3.55 µM,1.69 µM,3.16 µM,2.16 µM,4.77 µM,1.85 µM,3.51 µM,1.62 µM,3.02 µM,2.06 µM,3.88,3.94 µM,> 100 µM,1.83 µM,3.52 µM,2.64 µM,6.01 µM
CCN(CC)c1ccc2nc3c4ccccc4c(=O)cc-3n(-c3ccccc3)c2c1,1.75 µM,5.11 µM,2.41 µM,> 100 µM,1.29 µM,3.28 µM,0.49 µM,2.58 µM,1.69 µM,4.46 µM,2.34 µM,12.7 µM,2.89 µM,13.6,1.04 µM,5.85 µM,2.26 µM,6.46 µM,1.42 µM,3.95 µM
O=C(Nc1ccccc1C(F)(F)F)c1ccc(NC2=C(Cl)C(=O)N(Cc3ccccc3)C2=O)cc1,28.7 µM,> 100 µM,5.65 µM,80.5 µM,31.8 µM,> 100 µM,8.4 µM,> 100 µM,> 100 µM,> 100 µM,36.5 µM,> 100 µM,> 100 µM,> 100,86.9 µM,> 100 µM,33.2 µM,> 100 µM,40.6 µM,> 100 µM
COc1ccc(Cn2cc3c(c2)-c2oncc2CC3)cc1OC,0.322 µM,> 31.7 µM,0.163 µM,> 16.6 µM,0.15 µM,1.71 µM,0.19 µM,–,0.18 µM,1.27 µM,0.123 µM,0.761 µM,0.153 µM,> 50,0.233 µM,> 33.7 µM,0.161 µM,0.89 µM,0.248 µM,15.1 µM
ClCc1ccc(Cn2cnc3c(Cl)ncnc32)cc1,16.5 µM,44.2 µM,15.4 µM,> 63 µM,5.71 µM,19.2 µM,12.2 µM,33.5 µM,10.3 µM,30.2 µM,> 42 µM,> 67 µM,7.67 µM,19.4,9.68 µM,19.5 µM,1.34 µM,15.6 µM,19.7 µM,> 92.8 µM
Cc1ccc(Cl)cc1NC(=O)c1cc2ccccc2cc1O,0.356 µM,12.4 µM,0.365 µM,10.1 µM,1.14 µM,3.57 µM,0.106 µM,0.354 µM,0.396 µM,1.89 µM,0.52 µM,15.3 µM,0.414 µM,> 100,0.342 µM,4.51 µM,0.376 µM,2.28 µM,0.19 µM,0.707 µM
COc1cc2c(cc1O)CN1CCC23C=C[C@@H](O)CC13 (some centres undefined),–,> 100 µM,–,> 100 µM,–,> 100 µM,–,> 100 µM,–,> 100 µM,–,> 100 µM,–,> 100,–,> 100 µM,–,> 100 µM,–,> 100 µM
COc1cccc(/C=C/c2ccnc3ccccc23)c1OC,–,> 10 µM,–,> 10 µM,–,> 10 µM,–,> 10 µM,–,> 10 µM,–,> 10 µM,–,> 10,–,> 10 µM,–,> 10 µM,–,> 10 µM
Nc1cc(C(F)(F)F)c(-c2cc(N3CCOCC3)nc(N3CCOCC3)n2)cn1,1.67 µM and 1.55 µM,> 9.24 µM and 11.8 µM,0.875 µM and 0.58 µM,> 100 µM,0.463 µM and 0.613 µM,2.51 µM and 4.26 µM,1.31 µM and 1.47 µM,> 23.1 µM,1.39 µM and 1.22 µM,> 10 µM and 8.55 µM,0.179 µM and 0.377 µM,1.46 µM and 2.02 µM,1 µM and 0.717 µM,> 100,0.721 µM and 1.22 µM,–,0.646 µM and 0.451 µM,7.27 µM and 12.4 µM,0.678 µM and 0.385 µM,3.39 µM and 2.27 µM
CN(C)Cc1ccc(C(C)(C)C)cc1-c1cc(C(C)(C)C)ccc1CN(C)C,–,> 100 µM,–,> 100 µM,–,> 100 µM,–,> 100 µM,–,> 100 µM,–,> 100 µM,–,> 100,–,> 100 µM,–,> 100 µM,–,> 100 µM
O=S(=O)(c1ccccc1)N1CN2CN(C1)CN(S(=O)(=O)c1ccccc1)C2,–,> 100 µM,–,> 100 µM,–,> 100 µM,–,> 100 µM,–,> 100 µM,–,66.1 µM,–,> 100,–,> 100 µM,–,> 100 µM,–,> 100 µM
COc1ccc(-c2[nH]nc(N)c2-c2cc(OC)c3c(c2)OCO3)cc1,4.44 µM,> 100 µM,1.87 µM,> 100 µM,3.92 µM,32.4 µM,3.8 µM,52.3 µM,2.35 µM,31.6 µM,3.25 µM,> 100 µM,3 µM,> 100,9.09 µM,> 100 µM,3.38 µM,> 100 µM,2.81 µM,6.42 µM
COc1ccc2nc3cc([N+](=O)[O-])ccc3c(NNc3ccccc3)c2c1,6.77 µM,22.5 µM and > 100 µM,3.49 µM,29.4 µM and > 100 µM,6.73 µM,25.2 µM and > 100 µM,4.8 µM,46.7 µM and > 73.3 µM,6.25 µM,19.6 µM and 32.4 µM,15.6 µM,35.7 µM and > 100 µM,19.8 µM,> 100,–,> 100 µM and 71.8 µM,–,25.2 µM and 42.3 µM,–,> 78.9 µM

# From PubChem BioAssay (NCI)
